PMC6934184, “Selective DNA-PKcs inhibition extends the therapeutic index of localized radiotherapy and chemotherapy” (The Journal of Clinical Investigation, 2019)

Target: T1, RET (Homo sapiens, UniProt P07949)
T1 construct: purchased Thermo Fisher Scientific (Life Technologies) SelectScreen
Test: SelectScreen Z'LYTE
Assay type: biochemical
Outline: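 NU5455 was profiled across the SelectScreen Broad panel of kinase activity and binding assays. Z'LYTE reactions such as CSF1R ran at apparent Km ATP, while the Adapta CAMK1 assay used ATP listed as 10. Values are given as percent.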

T1 sequence (P07949 29-1114): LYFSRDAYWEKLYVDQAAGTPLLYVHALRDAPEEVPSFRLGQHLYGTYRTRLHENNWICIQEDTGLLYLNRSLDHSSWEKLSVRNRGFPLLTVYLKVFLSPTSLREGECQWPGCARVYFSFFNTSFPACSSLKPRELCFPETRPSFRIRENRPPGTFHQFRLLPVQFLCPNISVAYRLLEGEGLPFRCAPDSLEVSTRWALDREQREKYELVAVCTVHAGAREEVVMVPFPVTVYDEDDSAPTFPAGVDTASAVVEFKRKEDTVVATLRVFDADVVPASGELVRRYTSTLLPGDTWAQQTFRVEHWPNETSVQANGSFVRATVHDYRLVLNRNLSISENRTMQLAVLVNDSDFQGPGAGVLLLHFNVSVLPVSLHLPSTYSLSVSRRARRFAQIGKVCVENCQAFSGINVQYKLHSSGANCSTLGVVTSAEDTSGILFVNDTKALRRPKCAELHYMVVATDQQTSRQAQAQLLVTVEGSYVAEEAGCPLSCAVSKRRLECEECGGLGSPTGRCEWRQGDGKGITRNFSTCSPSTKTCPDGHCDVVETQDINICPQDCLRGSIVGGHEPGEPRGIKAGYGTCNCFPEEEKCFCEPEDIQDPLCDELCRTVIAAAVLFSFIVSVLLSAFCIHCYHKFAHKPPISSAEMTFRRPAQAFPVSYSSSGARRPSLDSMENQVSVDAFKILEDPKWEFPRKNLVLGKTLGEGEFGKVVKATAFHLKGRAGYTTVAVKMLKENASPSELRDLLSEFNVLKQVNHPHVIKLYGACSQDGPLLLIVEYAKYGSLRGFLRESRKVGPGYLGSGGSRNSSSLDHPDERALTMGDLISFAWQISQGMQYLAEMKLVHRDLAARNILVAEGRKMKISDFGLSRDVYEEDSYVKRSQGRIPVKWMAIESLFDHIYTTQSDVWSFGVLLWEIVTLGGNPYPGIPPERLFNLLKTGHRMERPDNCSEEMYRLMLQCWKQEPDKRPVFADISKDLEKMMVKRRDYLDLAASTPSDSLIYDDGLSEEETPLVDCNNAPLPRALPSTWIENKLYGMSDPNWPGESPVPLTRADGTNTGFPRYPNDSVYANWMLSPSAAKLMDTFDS

## CN(C(=O)CN1CCOCC1)c1ccc2sc3c(-c4cccc5c(=O)cc(N6CC7CCC(C6)O7)oc45)cccc3c2c1 [NU5455]
  inhibition at 1 µM: 5.2%
